Patent US20050112573A1, “Method of detecting toxic substance” (priority 2001, published 2005)

Tested on: yeast genes (level of expressed mRNA)
Assay: DNA chip analysis of expressed mRNA of yeast genes after 2 h culture with a toxic chemical substance
Format: cell-based, Saccharomyces cerevisiae S288C
Conditions: for The level of expressed mRNA in the presence of chemical substance/: ratio to no chemical; for The level of expressed mRNA in the presence of chemical substance/ (ratio to absence): transport facilitation protein gene; for The level of expressed mRNA in the presence of chemical substance/ (ratio to absence of chemical substance): stress protein genes, DNA chip; for The level of expressed mRNA in the presence of chemical substance/ in its absence, gene YPR184W: yeast gene YPR184W
Procedure, shortened: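 Values are treated-to-control fluorescence ratios from a whole-yeast-genome DNA chip (65° C, over 12 h hybridization) using Cy3/Cy5-labelled cDNA from mRNA. Log-phase S288C cells in YPD at 25° C were exposed 2 h to a toxicant at sublethal, growth-inhibiting concentration.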

sodium dodecylbenzosulfonate [(17)]
The level of expressed mRNA in the presence of chemical substance/The level of expressed mRNA in the absence of chemical substance (yeast gene YOR198C): 1.1
The level of expressed mRNA in the presence of chemical substance/ (yeast gene YOR220W): 3.5
The level of expressed mRNA in the presence of chemical substance/ (yeast gene YOR225W): 0.9
The level of expressed mRNA in the presence of chemical substance/in the absence of chemical substance (yeast gene YOR226C): 1.0
The level of expressed mRNA in the presence of chemical substance/ (yeast gene YOR228C): 1.0
The level of expressed mRNA in the presence of chemical substance/ (in its absence), gene YOR251C (yeast gene YOR251C, ratio of DNA chip fluorescence intensity to that without chemical substance): 0.9
The level of expressed mRNA in the presence of chemical substance/ (yeast gene YOR255W): 1.0
The level of expressed mRNA in the presence of chemical substance/The level of expressed mRNA in the absence of chemical substance (yeast gene YOR259C): 0.9
The level of expressed mRNA in the presence of chemical substance/The level of expressed mRNA in the absence of chemical substance (yeast gene YOR261C): 1.0
The level of expressed mRNA in the presence of chemical substance/ (ratio to absence) (yeast gene YOR270C): 0.9
The level of expressed mRNA in the presence of chemical substance/ (ratio to absence) (yeast gene YOR273C): 3.2
The level of expressed mRNA in the presence of chemical substance/The level of expressed mRNA in the absence of chemical substance (yeast gene YOR288C): 1.5
The level of expressed mRNA in the presence of chemical substance/in the absence of chemical substance (yeast gene YOR303W): 1.2
The level of expressed mRNA in the presence of chemical substance/ (ratio to absence), gene YOR316C (yeast gene YOR316C, mitochondria-located protein genes, 2 h culture with chemical): 0.8
The level of expressed mRNA in the presence of chemical substance/ (ratio to absence) (yeast gene YOR332W): 1.3
The level of expressed mRNA in the presence of chemical substance/ (in its absence), gene YOR348C (yeast gene YOR348C, ratio of DNA chip fluorescence intensity to that without chemical substance): 0.9
The level of expressed mRNA in the presence of chemical substance/The level of expressed mRNA in the absence of chemical substance (yeast gene YOR355W): 0.8
The level of expressed mRNA in the presence of chemical substance/ (in its absence), gene YOR363C (yeast gene YOR363C, ratio of DNA chip fluorescence intensity to that without chemical substance): 1.3
The level of expressed mRNA in the presence of chemical substance/The level of expressed mRNA in the absence of chemical substance (yeast gene YOR383C): 1.4
The level of expressed mRNA in the presence of chemical substance/ (ratio to absence), gene YPL040C (yeast gene YPL040C, mitochondria-located protein genes, 2 h culture with chemical): 0.8
The level of expressed mRNA in the presence of chemical substance/ (ratio to absence of chemical substance) (yeast gene YPL059W): 1.8
The level of expressed mRNA in the presence of chemical substance/in the absence of chemical substance (yeast gene YPL088W): 9.1
The level of expressed mRNA in the presence of chemical substance/The level of expressed mRNA in the absence of chemical substance (yeast gene YPL089C): 1.5
The level of expressed mRNA in the presence of chemical substance/The level of expressed mRNA in the absence of chemical substance (yeast gene YPL109C): 1.2
The level of expressed mRNA in the presence of chemical substance/ (ratio to absence), gene YPL134C (yeast gene YPL134C, mitochondria-located protein genes, 2 h culture with chemical): 1.3
The level of expressed mRNA in the presence of chemical substance/ (ratio to absence of chemical substance) (yeast gene YPL140C): 0.9
The level of expressed mRNA in the presence of chemical substance/ (ratio to absence) (yeast gene YPL147W): 1.5
The level of expressed mRNA in the presence of chemical substance/ (in its absence), gene YPL148C (yeast gene YPL148C, ratio of DNA chip fluorescence intensity to that without chemical substance): 1.0
The level of expressed mRNA in the presence of chemical substance/The level of expressed mRNA in the absence of chemical substance (yeast gene YPL149W): 2.2
The level of expressed mRNA in the presence of chemical substance/The level of expressed mRNA in the absence of chemical substance (yeast gene YPL154C): 1.6
The level of expressed mRNA in the presence of chemical substance/ (yeast gene YPL166W): 1.1
The level of expressed mRNA in the presence of chemical substance/ (ratio to absence of chemical substance) (yeast gene YPL194W): 1.0
The level of expressed mRNA in the presence of chemical substance/ (yeast gene YPL202C): 1.1
The level of expressed mRNA in the presence of chemical substance/ (ratio to absence) (yeast gene YPL224C): 1.3
The level of expressed mRNA in the presence of chemical substance/ (ratio to absence) (yeast gene YPL265W): 0.5
The level of expressed mRNA in the presence of chemical substance/ (ratio to absence) (yeast gene YPL271W): 1.2
The level of expressed mRNA in the presence of chemical substance/ (ratio to absence) (yeast gene YPL274W): 0.7
The level of expressed mRNA in the presence of chemical substance/ (ratio to absence of chemical substance) (yeast gene YPR005C): 1.0
The level of expressed mRNA in the presence of chemical substance/ (yeast gene YPR077C): 1.4
The level of expressed mRNA in the presence of chemical substance/The level of expressed mRNA in the absence of chemical substance (yeast gene YPR103W): 1.2
The level of expressed mRNA in the presence of chemical substance/The level of expressed mRNA in the absence of chemical substance (yeast gene YPR108W): 1.0
The level of expressed mRNA in the presence of chemical substance/ (ratio to absence) (yeast gene YPR124W): 1.0
The level of expressed mRNA in the presence of chemical substance/ (yeast gene YPR147C): 1.1
The level of expressed mRNA in the presence of chemical substance/ (in its absence), gene YPR165W (yeast gene YPR165W, ratio of DNA chip fluorescence intensity to that without chemical substance): 2.3
The level of expressed mRNA in the presence of chemical substance/in the absence of chemical substance (yeast gene YPR167C): 1.7
The level of expressed mRNA in the presence of chemical substance/ in its absence, gene YPR184W (energy system protein genes, 2 h culture with the chemical, ratio to control without chemical): 1.0
The level of expressed mRNA in the presence of chemical substance/ in its absence, gene YPR184W (ratio of DNA chip fluorescence intensity to that without chemical substance): 1.0
The level of expressed mRNA in the presence of chemical substance/ (ratio to absence) (yeast gene YPR201W): 0.8
